# Source: patent US20240156898A1, “METHODS AND COMPOSITIONS FOR TREATING OCULAR DISORDERS AND DISEASES” (ONL Therapeutics, Inc., priority 2021, published 2024)
# Residues, ends and D or L forms follow the SMILES beside them.
# Legend:
# [1] = minipig, in vivo
# Protocol: Seven animals received a repeat IVT dose at 2 mg/mL (0.1 mg/eye) on Day 90. […] Vitreous humor, retina, and choroid were collected on days 1, 7, 14, 28, and 88.
# [2] = in vivo; conditions: rabbit
# Protocol: (§1) Body weights were measured and recorded prior to first dose, approximately weekly (for surviving animals through Week 12), and prior to euthanasia. […] Ophthalmic examinations were performed using the Hackett-McDonald Scoring System on Days 0, 7, 14, 28, 90, 97, 151, and 168. Pharmacokinetic analyses were performed on the vitreous humor concentration data.
# (§2) Seven animals received a repeat IVT dose at 2 mg/mL (0.1 mg/eye) on Day 90.
# (§3) Vitreous humor, retina, and choroid were collected on days 1, 7, 14, 28, 42, 61, 90, 97, 151, and 168. Eyes were enucleated, snap frozen using liquid nitrogen, and kept on dry ice or frozen at −80° C. until dissected for collection of aqueous humor, vitreous humor, retina, choroid, iris-ciliary body (ICB), and lens.
# (§4) To homogenize ocular tissue samples, weighed amounts of control bovine vitreous humor, retina, and choroid were homogenized in USA scientific impact resistant microtubes containing 2.8 mm ceramic beads. Unknown rabbit vitreous humor, retina, and choroid samples were homogenized in USA scientific impact resistant microtubes containing 2.8 mm ceramic beads. Each vitreous humor sample was homogenized after the addition of 5000 microliters (uL) diluent (acetonitrile: water: 1 M hydrochloric acid (70:20:10, v/v/v). Retina tissues were homogenized after the addition of diluent (IPA:NH4OH (1000:1, v/v)) at a 1:5 ratio (parts tissue to parts diluent), and choroid samples were homogenized following addition of diluent at a 1:19 ratio. Tissues were homogenized at 5500 rpm for 3×30 second cycles with 20 second pauses between cycles until homogenized. Choroid went through two runs of homogenization, and retina and vitreous humor samples went through one run of homogenization.
# (§5) Preparation of Standards, Unknowns, Blanks, and Blanks with Internal Standard for Vitreous Humor Analysis: • In a polypropylene tube, 10 uL of working calibration standard was added to 90 uL control blank vitreous humor. For blanks and blanks with internal standard, 100 uL of control blank bovine vitreous humor was added. Five hundred (500) uL of acetonitrile: water:1M hydrochloric acid (70:20:10, v/v/v) was added to each standard and 500 uL of acetonitrile: water:1M hydrochloric acid (70:20:10, v/v/v) was added to blanks. Standards and blanks were vortex mixed. One hundred (100) uL of each standard, blank or unknown vitreous humor sample homogenate was then aliquoted. One hundred (100) uL of IPA:NH4OH (1000:1, v/v) was added to each sample. The samples were vortex mixed for 1 minute, then centrifuged for 10 minutes at 4,000 rpm (4° C.). […] Fifty (50.0) uL of acetonitrile:water:1M hydrochloric acid (70:20:10, v/v/v) was added to blank without IS. Two hundred (200) uL of water was added. The samples were then mixed using a multichannel pipette, and supernatant transferred to an autosampler plate for analysis.
# (§6) In a 96-well plate, 100 uL of control retina or choroid homogenate was added for calibration samples and unknowns. For blanks and blanks with internal standard, 100 uL of control bovine retina or choroid tissue homogenate was added. […] Twenty (20) uL acetonitrile:water:formic acid (25:75:0.1, v/v/v) was added to each blank without IS sample. Three-hundred (300) uL of IPA:NH4OH (1000:1, v/v) was added to each choroid or retina sample. The samples were then vortex mixed for 5 minutes. The samples were allowed to set for 15 minutes, vortex mixed for an additional minute, and centrifuged for 10 minutes at 4,000 rpm (4° C.).
# (§7) Three-hundred-fifty (350) uL of each sample was then aliquoted to a 96-well plate. The samples were dried with nitrogen at 35° C.
# [3] = system: retinal pigment epithelial cell death; assay: Sodium iodate (NaIO3) challenge study, duration of protection, fluorescein angiography lesion area; conditions: rabbit
# Protocol: NaIO3 solution: • Challenge Article: NaIO3 • Administration Route: IV • Frequency of Administration: Day 4 (day 7 endpoint), 14 (day 17 endpoint), 28 (day 31 endpoint), 59 (day 61 endpoint), or 78 (day 81 endpoint (rechallenged group)). • Solution: 20 mg/ml in 0.9% Injectable Saline • Dose: 17 or 18 mg/kg body weight
# Test System: • Species: Rabbit • Expected Age: Animals were between 3 and 4 months of age • Expected Body Range: Approximately 2.0 Kg, Identification Animals were individually • housed and identified via cage card and ear ID and/or ear tattoo. • Experimental History: Purpose-bred and experimentally naïve at the onset of the study
# Intravitreal Injection: • On Day 0, eyes were anesthetized with proparacaine and pupils dilated with tropicamide. Animals were anesthetized with isoflurane vapors to effect. A few drops of Betadine were placed on the eye and then rinsed with ophthalmic eye wash. A clean speculum was placed in the eye (rinsed in Betadine and sterile saline) and the temporal sclera was marked with calipers 3.5 mm from the corneal border. […] In order to reduce the potential for reflux of the test article the needle remained in the vitreous for at least 10 seconds following injection. No reflux was noted on the dosing record.
# Model Induction: • A 20 mg/ml solution of NaIO3 was prepared in 0.9% injectable saline aliquoted into 4 batches and frozen at −20° C. For Groups 1-8, 1 batch of NaIO3 was thawed prior to injection. Groups 9-10 were added after the Study was underway therefore a new solution of 20 mg/ml NaIO3 was prepared in 0.9% injectable saline and frozen at −20° C. and thawed prior to injection. Test article and NaIO3 were injected into the left ear.
# Animals were weighed and anesthetized with isoflurane vapors to effect. The left ear was shaved and swabbed with 10% alcohol prior to injection. An indwelling catheter was placed in the left marginal ear vein and flushed with 0.9% injectable saline. […]
# Data Analysis: • The area of RPE depigmentation is reported as a unitless value provided by the ImageJ software. […] The resulting area was then measured.
# [4] = Ocular tissue concentration of ONL1204 after intravitreal injection in rabbit eye (LC-MS/MS); conditions: 0.1 mg/eye
# Protocol: as §1, §2, §3, §4, §5, §6, §7
smiles,measurement,setting,value
CC[C@H](C)[C@H](NC(=O)[C@H](Cc1ccc(O)cc1)NC(=O)[C@H](CC(N)=O)NC(=O)[C@@H](NC(=O)[C@H](C)NC(=O)CNC(=O)[C@H](CC(C)C)NC(=O)[C@H](Cc1ccc(O)cc1)NC(=O)[C@@H](NC(=O)[C@H](Cc1cnc[nH]1)NC(=O)[C@@H](N)Cc1cnc[nH]1)[C@@H](C)CC)C(C)C)C(=O)N[C@@H](Cc1ccc(O)cc1)C(N)=O [ONL1204] (H-HHIYLGAVNYIY-NH2),detection in the vitreous humor across all time points analyzed,[1],detected in the vitreous humor across all time points analyzed
same,half-life,[2],280 days
same,lesion size vs negative controls and vs 25 ug,"[3]; 100 ug per eye IVT on Day 0, NaIO3 challenge Day 14",significantly smaller lesion size
same,lesion size vs negative control animals and vs 25 ug,"[3]; 100 ug per eye IVT on Day 0, NaIO3 challenge Day 28",significantly smaller lesion size
same,mean lesion size across challenge time points,"[3]; 25 or 100 ug per eye IVT on Day 0, NaIO3 challenge Days 4 to 59",substantive reduction
same,tissue level at time at 4032 h,[4]; retina,8.4 ng/g
same,tissue level at time at 24 h,"[4]; retina, Conc. of ONL1204 Retina, single IVT 0.1 mg/eye, Day 1, LLOQ 3.00 ng/g",12.7 ng/g
same,tissue level at time at 168 h,"[4]; retina, Conc. of ONL1204 Retina, single IVT 0.1 mg/eye, Day 7, LLOQ 3.00 ng/g",85.2 ng/g
same,tissue level at time at 336 h,"[4]; retina, Conc. of ONL1204 Retina, single IVT 0.1 mg/eye, Day 14, LLOQ 3.00 ng/g",5.95 ng/g
same,half-life,"[4]; vitreous humor, other: intravitreal injection",279 days
